For orientation: solubility (kinetic) means the concentration staying in solution when a stock, usually in DMSO, is diluted into the medium.

In brackets after ≈: the same amount, converted by molar mass. Some results are limits rather than exact numbers.

For the series the following is noted: buffer; pH 7.4; 200.0 µM.
In turn, `O=C(COC(=O)CCC(=O)c1cccs1)Nc1ccccc1C(F)(F)F` displayed a solubility (kinetic) above 57.8 µg/mL.

`Br.Fc1ccccc1CNCC1CCCO1` (centres undefined) showed a solubility (kinetic) of 43.1 µg/mL.

Compound `CC(Sc1nnc(Cc2ccccc2)o1)C(=O)NC1(C#N)CCCCC1` (centres undefined) returned a kinetic solubility above 55.6 µg/mL.

As for `O=C(O)c1ccc(S(=O)(=O)c2ccc([N+](=O)[O-])cc2[N+](=O)[O-])cc1`, the kinetic solubility is above 52.8 µg/mL.

Compound `OC[C@H]1O[C@@H](n2cnc3c(NC4CCCC4)ncnc32)[C@H](O)[C@@H]1O` displayed a kinetic solubility above 50.3 µg/mL.

As for `CCC1CN(C(=O)NCc2ccc(C)cc2)c2cc(Cl)ccc2O1` (centres undefined), the kinetic solubility was below 0.4 µg/mL.

Turning to `C=C1c2cc3c(cc2NC(=S)N1Cc1ccccc1)OCO3`, the kinetic solubility worked out at 9.8 µg/mL (≈ 31.6 µM).

As to `Cc1cc([N+](=O)[O-])c2ccccc2[n+]1[O-]`, the kinetic solubility was above 30.6 µg/mL.

With `O=C1CCc2ccccc2N1`, the kinetic solubility was found to be 15.9 µg/mL (≈ 108 µM).

For the compound `Cc1ccc2nc(-c3ccc(-c4ccccn4)s3)cn2c1`, the solubility (kinetic) worked out at 3.2 µg/mL (≈ 11 µM).

In the case of `Cc1ccc(NC(=O)C2CCCN2C(=O)Oc2ccccc2)c(C)c1` (centres undefined), the solubility (kinetic) is above 50.8 µg/mL.

As for `Cc1cccc(/C=N/NC(=O)c2cc(C)nc3ccccc23)n1`, the kinetic solubility was above 45.7 µg/mL.

`COC(=O)C(NC(C)=O)(Nc1cc(C)ccn1)C(F)(F)F` (centres undefined): the kinetic solubility was 40.7 µg/mL (≈ 133 µM).

The compound `Cc1c(C)n(CC(O)CN2CCN(C)CC2)c2ccccc12` (centres undefined) displayed a solubility (kinetic) of 43.3 µg/mL (≈ 144 µM).

As to `CCN(CC(=O)Nc1ccc2c(c1)OCCO2)CC(=O)Nc1ccc(C)c(S(=O)(=O)N(C)C)c1`, the solubility (kinetic) is 35.3 µg/mL (≈ 72 µM).

In turn, `Cc1ccc2cc(N)ccc2n1` came in with a kinetic solubility above 23.7 µg/mL.

For `O=C(O)CC(c1cccc(O)c1)N1Cc2ccccc2C1=O` (centres undefined), the kinetic solubility was above 44.6 µg/mL.

The compound `O=C(Cc1cccc2ccccc12)NCCc1ccccc1` showed a solubility (kinetic) of 7.1 µg/mL (≈ 24.5 µM).

As for `COc1ccc(OC)c(/C=C/c2nc3ccccc3[nH]c2=O)c1`, the kinetic solubility is 3.1 µg/mL (≈ 10.1 µM).

The compound `Cc1ccc(S(=O)(=O)N2CCCCC2)cc1NC(=O)c1cc(F)c(F)c(F)c1F` registered a solubility (kinetic) of 4.7 µg/mL (≈ 10.9 µM).

The compound `Cc1cc(C)c(N=C2C(=O)Nc3ccccc32)c(C)c1` came in with a solubility (kinetic) above 39.6 µg/mL.

As for `CO/N=C(\CCC(=O)O)c1cccs1`, the solubility (kinetic) is above 32 µg/mL.

Take `CC(=O)Nc1ccccc1C(=O)C(=O)Nc1ccc(F)c(Cl)c1`: the solubility (kinetic) came out at 2.4 µg/mL (≈ 7.17 µM).

With `CN(C)c1ccc(C(=O)OCC(=O)NC2CCCCCC2)cc1`, the solubility (kinetic) worked out at 2.8 µg/mL (≈ 8.79 µM).

In turn, `COc1ccccc1C(=O)NC(=O)CSc1nnc2ccccn12` came in with a kinetic solubility above 51.4 µg/mL.

`Cc1cc(NC(=O)Nc2ccc(Cl)cc2)no1` returned a solubility (kinetic) of 1.4 µg/mL (≈ 5.56 µM).

`Cc1c(C)n(CC(O)CN(CCO)CCO)c2ccccc12.Cl` (centres undefined) had a kinetic solubility above 51.4 µg/mL.

The compound `C=CCNC(=S)Nc1sc2c(c1C(N)=O)CCCC2` displayed a kinetic solubility of 18.2 µg/mL (≈ 61.6 µM).

The compound `CC(C)COc1ccc(C(=O)N2C(=O)c3ccc(N)cc3C2=O)cc1` returned a kinetic solubility of 1.8 µg/mL (≈ 5.32 µM).

For `Cc1cc(C(=O)OCC(=O)N2CCCCCC2)ccc1[N+](=O)[O-]`, the kinetic solubility is above 48.1 µg/mL.

Regarding `COc1cccc(OCC(=O)N(C)Cc2nc(-c3ccccc3)no2)c1`, the solubility (kinetic) stood at 36.6 µg/mL (≈ 104 µM).

Compound `CC1(CCl)CN1S(=O)(=O)c1ccccc1` (centres undefined) showed a kinetic solubility of 30.8 µg/mL (≈ 125 µM).

On to `CCOC(=O)C1CCCN(C(=O)c2cc3ccccc3oc2=O)C1` (centres undefined), for which the kinetic solubility was found to be 38.8 µg/mL (≈ 118 µM). This solubility kinetic and that of the compound before are within 1.5-fold of each other.

In turn, `O=C(Nc1nc(-c2ccc(Cl)s2)cs1)c1ccco1` returned a kinetic solubility of 9.2 µg/mL (≈ 29.6 µM).

Regarding `O=C(O)/C=C/c1ccc(S(=O)(=O)Nc2cccnc2)cc1`, the solubility (kinetic) is above 45.6 µg/mL.

The compound `COc1ccc(C(=O)N[C@H](C(=O)NCc2ccccc2)C(C)C)cc1` returned a solubility (kinetic) of 5.2 µg/mL (≈ 15.3 µM).

On to `O=C(C1CCCN(S(=O)(=O)c2ccccc2)C1)N1CCCCC1` (centres undefined), for which the solubility (kinetic) was determined as 50.4 µg/mL (≈ 150 µM).

As for `COc1cccc(-c2cc(C(=O)NCC3CCCO3)c3cc(Br)cc(C)c3n2)c1` (centres undefined), the kinetic solubility is below 0.5 µg/mL.

`C=CCn1c(=O)c(C(=O)Nc2ccc(C)cc2)c(O)c2ccccc21`: the kinetic solubility was below 0.4 µg/mL.

On to `CCN(CC)c1ccc(/C=N/O)cc1`, for which the kinetic solubility was above 28.8 µg/mL.

With `COc1ccc(OC(C)C(=O)NCC2CCCO2)cc1` (centres undefined), the kinetic solubility is above 41.9 µg/mL.

In turn, `CCCS(=O)(=O)Nc1c(C(=O)O)[nH]c2ccc(OC)cc12` gave a kinetic solubility of 46.3 µg/mL (≈ 148 µM).

With `O=C(O)Cn1cc(/C=N/Nc2ccc([N+](=O)[O-])cn2)c2ccccc21`, the solubility (kinetic) is above 50.9 µg/mL.

`CCN1CCN(CC(=O)c2ccc(C)cc2)CC1` gave a kinetic solubility of 32.4 µg/mL (≈ 132 µM).

With `Cc1cc(Br)ccc1NC(=O)CN(C)C(=O)C1=COCCO1`, the solubility (kinetic) is above 55.4 µg/mL.

Turning to `Cc1ccc(C(=O)OCC(=O)NCc2cccs2)s1`, the kinetic solubility is above 44.3 µg/mL.

The compound `C=C1C(C(=O)Nc2ccccc2)C1C(=O)Nc1ccccc1` (centres undefined) registered a solubility (kinetic) below 0.3 µg/mL.

`Cc1cc(C)c(C(=O)NCCCN2CCOCC2)c(C)c1` yielded a solubility (kinetic) above 43.6 µg/mL.

Compound `CC(=O)N1CCN(C(=O)c2ccco2)CC1` came in with a solubility (kinetic) above 33.3 µg/mL.

For `Cc1c(Cl)cccc1NC(=O)C1CCN(S(C)(=O)=O)CC1`, the solubility (kinetic) was 16.9 µg/mL (≈ 51.1 µM).

Regarding `Cc1cc(OC(C)C(=O)Nc2cccnc2)ccc1Cl` (centres undefined), the kinetic solubility amounted to 35.8 µg/mL (≈ 123 µM). Compared with the last compound, the solubility kinetic is about 2.1-fold higher.

Compound `COc1ccccc1C(C)NC(=O)c1ccc(S(=O)(=O)NCc2ccco2)cc1` (centres undefined) had a solubility (kinetic) of 12.6 µg/mL (≈ 30.4 µM).

Turning to `Cn1c(=O)c2cnc(-c3ccc(C(F)(F)F)cc3)nc2n(C)c1=O`, the kinetic solubility was below 0.2 µg/mL.

For the compound `CC(=O)c1ccc(NC(=O)C2(c3ccccc3)CC2(Cl)Cl)cc1` (centres undefined), the kinetic solubility stood at 19.6 µg/mL (≈ 56.3 µM).

`O=C1C2C3C=CC(C3)C2C(=O)N1c1cccc2ccccc12` (centres undefined): the solubility (kinetic) turned out to be 22.9 µg/mL (≈ 79.1 µM).

`CC(OC(=O)c1ccc(Cl)nc1)C(=O)NC(C)(C)C` (centres undefined): the solubility (kinetic) is above 42.7 µg/mL.

As for `CCN(CC)CC(=O)Nn1c(C)nc2c(ncn2-c2ccccc2)c1=O`, the kinetic solubility was above 53.2 µg/mL.

`COc1cc(SC)ccc1C(=O)Nc1ncc(C)s1` displayed a solubility (kinetic) of 1.4 µg/mL (≈ 4.76 µM).

`O=[N+]([O-])c1cccc(S(=O)(=O)c2cccc([N+](=O)[O-])c2)c1` came in with a kinetic solubility of 0.4 µg/mL (≈ 1.3 µM).

As to `Cc1cc(OCCN2CCOCC2)ccc1C(C)C.Cl`, the solubility (kinetic) came out at 34.2 µg/mL.

On to `O=c1[nH]c(=S)[nH]c(O)c1/C=C1/C=c2ccccc2=N1`, for which the solubility (kinetic) turned out to be 1.8 µg/mL (≈ 6.63 µM).

The compound `Cc1onc(-c2ccccc2Cl)c1NC(=O)NCc1cccs1` showed a solubility (kinetic) of 42.6 µg/mL (≈ 122 µM). Against the preceding compound, the solubility kinetic is about 24-fold higher.

Regarding `COc1ccc(CCC(=O)Nc2ncc(C)s2)cc1OC`, the kinetic solubility came out at 1.8 µg/mL (≈ 5.87 µM). Against the preceding compound, the solubility kinetic is about 24-fold lower.

As for `COC(=O)c1ccc(NC(=S)NC(=O)C2CCC2)cc1`, the kinetic solubility was 4.9 µg/mL (≈ 16.8 µM). This solubility kinetic lies about 2.7-fold higher than the previous one.

Take `CCOc1cc(/C=C2\SC(=O)N(c3ccc(O)cc3)C2=O)ccc1O`: the kinetic solubility turned out to be 4 µg/mL (≈ 11.2 µM).

With `Cc1sc2nc(C)n(/N=C/N(C)C)c(=O)c2c1C`, the kinetic solubility is above 39.7 µg/mL.

Take `O=C(CN1CCN(c2ccc(F)cc2)CC1)Nc1ccccc1`: the kinetic solubility is above 47 µg/mL.

`CC(C)Sc1nc2ncnc(N)c2[nH]1` returned a solubility (kinetic) above 31.4 µg/mL.

Compound `CC(=O)Nc1ccc(S(=O)(=O)N2CCCC(C(=O)O)C2)cc1` (centres undefined) returned a solubility (kinetic) above 49 µg/mL.

The compound `Clc1ccc(-c2cc(-c3ccccn3)on2)c(Cl)c1` showed a kinetic solubility below 0.3 µg/mL.

`Cc1cc(NC(=O)CSc2nc3ccccc3cc2C#N)no1`: the kinetic solubility amounted to 2.9 µg/mL (≈ 8.94 µM).

In turn, `Cc1nnc(SCC(=O)NC2CC2)n1CC1CCCO1` (centres undefined) displayed a kinetic solubility above 44.5 µg/mL.

Compound `N/C(=N\OC(=O)CCCc1ccccc1)c1ccccc1Cl` registered a kinetic solubility of 11.4 µg/mL (≈ 36 µM).

`COCc1nc2ccccc2n1Cc1ccccc1C` came in with a solubility (kinetic) above 40 µg/mL.

These data come from PubChem BioAssay AID1996.
